Laboratory results: patent publication US9856290B2, “Glycopeptide compositions and uses thereof” (SUSSEX RESEARCH LABORATORIES INC., priority 2013, dated 2018)
The star is where a group is joined. Ac3‑α‑GalNAc = per-acetylated α-N-acetylgalactosamine (O-glycoside), CC(=O)N[C@@H]1[C@@H](OC(C)=O)[C@@H](OC(C)=O)[C@@H](COC(C)=O)O[C@@H]1*; Ac3‑β‑GlcNAc = per-acetylated β-N-acetylglucosamine, CC(=O)N[C@@H]1[C@@H](OC(C)=O)[C@H](OC(C)=O)[C@@H](COC(C)=O)O[C@H]1*; αGalNAc = CC(=O)N[C@@H]1[C@@H](O)[C@@H](O)[C@@H](CO)O[C@@H]1*; βGlcNAc = CC(=O)N[C@@H]1[C@@H](O)[C@H](O)[C@@H](CO)O[C@H]1*; βGlc = OC[C@H]1O[C@@H](*)[C@H](O)[C@@H](O)[C@@H]1O; βGal = OC[C@H]1O[C@@H](*)[C@H](O)[C@@H](O)[C@H]1O; Palmitoyl = CCCCCCCCCCCCCCCC(=O)*

How the values were obtained:
[1] = system: Human Dermal Fibroblasts (KMST-6); test: ECM ELISA assay: fibronectin secretion by human dermal fibroblasts; type: cell-based; settings: 5 μM, % compared to control set at 100%, normalized to total protein; for Fibronectin secretion at 48 hours: KMST-6, 48 hours; for Fibronectin Secretion at 72 hours: KMST-6, 72 hours
Method: (§1) KMST-6 cells (Japan Health Sciences Foundation, JCRB0433) were seeded at 7,000 cells/ml in 12-well tissue culture treated plates (Falcon, 353043) in complete media. The complete media consisted of the following: MEM/EBSS (Hyclone, SH30024.01), 10% Heat-Inactivated FBS (Gibco, 10082-147), 1% L-Glutamine (Hyclone, SH30031.01), 1% Nucleosides (800 mg/L Adenosine, 850 mg/L Guanidine, 730 mg/L Cytidine, 730 mg/L Uridine and 240 mg/L Thymidine), 1% Penicillin/Streptomycin (HyClone, SV30010), 1% Sodium Pyruvate (HyClone, SH30239.01), 1% Non-Essential Amino Acids (Hyclone, SH30238.01) and 0.04% Gentamicin (Gibco, 15710-064). Cells were grown for 2 days prior to treatments. The media was aspirated and cells were washed with 1×PBS (Fisher, SH30256.01) and treated with 5 μM (1 mL/well) glycopeptides, reference (Pal-KTTKS, CPC Scientific, 822197), and control (DMSO, Fisher, BP231-100) in serum-free media supplemented with 50 μg/mL Sodium Ascorbate (Sigma, A4034) and 80 μg/mL β-Aminopropionate Fumarate (Sigma, A3134). The treated cells were incubated at 37° C. and 5% CO2 for 48 and 72 hours. At each timepoint, media from each treatment was collected and centrifuged at 1500 RPM for 15 minutes at 4° C. The supernatant was collected and stored at −80° C. for extracellular matrix protein quantification. The following kits were used for quantification of ECM proteins: Fibronectin (Takara, MK115) and Elastin (Uscn Life Science Inc., E91337Hu). The cells were harvest and lysed with 250 μL Lysis Buffer (20 mM Tris-HCl (Sigma, T1503), 137 mM NaCl (Sigma, S9888), 2 mM EDTA (Fisher, BP118), 1% IGEPAL (Sigma, 18896), 10% Glycerol (Sigma, G5516), 100 μM PMSF (Fisher, 36978) and 10 μg/mL Leupeptin (Sigma-Aldrich, L2884). They were placed on a container of ice on a plate shaker (Lab-Line Instruments, 3595) for 30 minutes. The lysate was centrifuged at 10,000 g for 5 minutes at 4° C. The supernatant was collected and used for protein quantification (BioRad, 500-0112).
(§2) To determine effects on extracellular matrix protein secretion, 5 μM of individual glycopeptides were incubated with Human Dermal Fibroblasts (KMST-6). The control sample cells were treated with DMSO (Fisher, BP231-100). As described previously, supernatant was collected from treated cells (at two time-points, 48 and 72 hours of treatment) and stored at −80° C. for subsequent extracellular matrix protein quantification using ELISA kits (Fibronectin (Takara, MK115), Elastin (Uscn Life Science Inc., E91337Hu). For the determination of total cellular protein, treated cells were harvested and lysed. The lysate was centrifuged, the supernatant was collected and then used for protein quantification (BioRad, 500-0112). ELISA plates were read on the plate reader (Molecular Devices) at absorbance of 450 nm and SoftMax Pro software was used to compute the μg/ml values of protein of interest derived from the generated 4-parameter fit standard curve. Each μg/ml of protein secreted was normalized to total protein per well. The data was analysed by averaging out normalized values from at least three independent experiments and presenting them as a % compared to control treatment set at 100% (Table 2-5). Statistical significance was performed using One-way ANOVA (p<0.05) where “*” represents statistical significance when compared to control and “#” represents statistical significance when compared to reference. […]

[2] = system: Human Dermal Fibroblasts (KMST-6); test: ECM ELISA assay: elastin secretion by human dermal fibroblasts; type: cell-based; settings: 5 μM, % compared to control set at 100%, normalized to total protein; for Elastin Secretion at 48 hours: KMST-6, 48 hours; for Elastin Secretion at 72 hours: KMST-6, 72 hours
Method: as §1, §2

Row | Substance | Fibronectin secretion at 48 hours [1] [%] | Fibronectin Secretion at 72 hours [1] [%] | Elastin Secretion at 48 hours [2] [%] | Elastin Secretion at 72 hours [2] [%]
1 | Pal-KT(β-GlcNAc)TKS-OH (Palmitoyl-KT(βGlcNAc)TKS-OH; SMILES CCCCCCCCCCCCCCCC(=O)N[C@@H](CCCCN)C(=O)N[C@H](C(=O)N[C@H](C(=O)N[C@@H](CCCCN)C(=O)N[C@@H](CO)C(=O)O)[C@@H](C)O)[C@@H](C)O[C@@H]1O[C@H](CO)[C@@H](O)[C@H](O)[C@H]1NC(C)=O; listed as Homo sapiens) [GP001-6] | 123.2 | 100.0 | 91.00 | 81.50
2 | Pal-KN(β-Glc)TKS-OH (Palmitoyl-KN(βGlc)TKS-OH; listed as Homo sapiens) [GP003-6] | 140.2 | 119.7 | 170.3 | 128.8
3 | Pal-KTT(Ac3-β-GlcNAc)KS-OH (Palmitoyl-KTT(Ac3‑β‑GlcNAc)KS-OH; SMILES CCCCCCCCCCCCCCCC(=O)N[C@@H](CCCCN)C(=O)N[C@H](C(=O)N[C@H](C(=O)N[C@@H](CCCCN)C(=O)N[C@@H](CO)C(=O)O)[C@@H](C)O[C@@H]1O[C@H](COC(C)=O)[C@@H](OC(C)=O)[C@H](OC(C)=O)[C@H]1NC(C)=O)[C@@H](C)O; listed as Homo sapiens) [GP001-11] | 111.2 | 113.8 | 114.3 | 94.75
4 | Pal-KT(α-GalNAc)-T(α-GalNAc)KS-OH (Palmitoyl-KT(αGalNAc)T(αGalNAc)KS-OH; SMILES CCCCCCCCCCCCCCCC(=O)N[C@@H](CCCCN)C(=O)N[C@H](C(=O)N[C@H](C(=O)N[C@@H](CCCCN)C(=O)N[C@@H](CO)C(=O)O)[C@@H](C)O[C@H]1O[C@H](CO)[C@H](O)[C@H](O)[C@H]1NC(C)=O)[C@@H](C)O[C@H]1O[C@H](CO)[C@H](O)[C@H](O)[C@H]1NC(C)=O; listed as Homo sapiens) [GP001-14] | 104.8 | 94.75 | 88.00 | 98.25
5 | Pal-KTTKS(α-GalNAc)-OH (Palmitoyl-KTTKS(αGalNAc)-OH; SMILES CCCCCCCCCCCCCCCC(=O)N[C@@H](CCCCN)C(=O)N[C@H](C(=O)N[C@H](C(=O)N[C@@H](CCCCN)C(=O)N[C@@H](CO[C@H]1O[C@H](CO)[C@H](O)[C@H](O)[C@H]1NC(C)=O)C(=O)O)[C@@H](C)O)[C@@H](C)O; listed as Homo sapiens) [GP002-2] | 95.7 | 90.60 | 143.8 | 127.0
6 | Pal-KTTKS(β-Gal)-OH (Palmitoyl-KTTKS(βGal)-OH; SMILES CCCCCCCCCCCCCCCC(=O)N[C@@H](CCCCN)C(=O)N[C@H](C(=O)N[C@H](C(=O)N[C@@H](CCCCN)C(=O)N[C@@H](CO[C@@H]1O[C@H](CO)[C@H](O)[C@H](O)[C@H]1O)C(=O)O)[C@@H](C)O)[C@@H](C)O; listed as Homo sapiens) [GP002-8] | 110.0 | 121.0 | 103.8 | 177.8
7 | Pal-KT(Ac3-β-GlcNAc)TKS-OH (Palmitoyl-KT(Ac3‑β‑GlcNAc)TKS-OH; SMILES CCCCCCCCCCCCCCCC(=O)N[C@@H](CCCCN)C(=O)N[C@H](C(=O)N[C@H](C(=O)N[C@@H](CCCCN)C(=O)N[C@@H](CO)C(=O)O)[C@@H](C)O)[C@@H](C)O[C@@H]1O[C@H](COC(C)=O)[C@@H](OC(C)=O)[C@H](OC(C)=O)[C@H]1NC(C)=O; listed as Homo sapiens) [GP001-5] | 125.0 | 105.0 | 81.67 | 90.00
8 | Pal-KTT(α-GalNAc)KS-OH (Palmitoyl-KTT(αGalNAc)KS-OH; SMILES CCCCCCCCCCCCCCCC(=O)N[C@@H](CCCCN)C(=O)N[C@H](C(=O)N[C@H](C(=O)N[C@@H](CCCCN)C(=O)N[C@@H](CO)C(=O)O)[C@@H](C)O[C@H]1O[C@H](CO)[C@H](O)[C@H](O)[C@H]1NC(C)=O)[C@@H](C)O; listed as Homo sapiens) [GP001-10] | 100.2 | 104.0 | 103.0 | 98.67
9 | Pal-KTT(Ac3-α-GalNAc)KS-OH (Palmitoyl-KTT(Ac3‑α‑GalNAc)KS-OH; SMILES CCCCCCCCCCCCCCCC(=O)N[C@@H](CCCCN)C(=O)N[C@H](C(=O)N[C@H](C(=O)N[C@@H](CCCCN)C(=O)N[C@@H](CO)C(=O)O)[C@@H](C)O[C@H]1O[C@H](COC(C)=O)[C@H](OC(C)=O)[C@H](OC(C)=O)[C@H]1NC(C)=O)[C@@H](C)O; listed as Homo sapiens) [GP001-9] | 123.4 | 104.8 | 103.7 | 104.3
10 | Pal-KT(β-Glc)TKS-OH (Palmitoyl-KT(βGlc)TKS-OH; SMILES CCCCCCCCCCCCCCCC(=O)N[C@@H](CCCCN)C(=O)N[C@H](C(=O)N[C@H](C(=O)N[C@@H](CCCCN)C(=O)N[C@@H](CO)C(=O)O)[C@@H](C)O)[C@@H](C)O[C@@H]1O[C@H](CO)[C@@H](O)[C@H](O)[C@H]1O; listed as Homo sapiens) [GP001-2] | 133.0 | 115.4 | 102.8 | 94.50
11 | Pal-KTT(β-GlcNAc)KS-OH (Palmitoyl-KTT(βGlcNAc)KS-OH; SMILES CCCCCCCCCCCCCCCC(=O)N[C@@H](CCCCN)C(=O)N[C@H](C(=O)N[C@H](C(=O)N[C@@H](CCCCN)C(=O)N[C@@H](CO)C(=O)O)[C@@H](C)O[C@@H]1O[C@H](CO)[C@@H](O)[C@H](O)[C@H]1NC(C)=O)[C@@H](C)O; listed as Homo sapiens) [GP001-12] | 106.5 | 89.25 | 73.00 | 76.75
12 | Pal-KTTKS(β-Glc)-OH (Palmitoyl-KTTKS(βGlc)-OH; SMILES CCCCCCCCCCCCCCCC(=O)N[C@@H](CCCCN)C(=O)N[C@H](C(=O)N[C@H](C(=O)N[C@@H](CCCCN)C(=O)N[C@@H](CO[C@@H]1O[C@H](CO)[C@@H](O)[C@H](O)[C@H]1O)C(=O)O)[C@@H](C)O)[C@@H](C)O; listed as Homo sapiens) [GP002-4] | 121.5 | 116.0 | 145.0 | 142.0
